From ChEMBL document CHEMBL4043175, “Tetrahydrobenzothiophene carboxamides: Beyond the kinase domain and into the fatty acid realm” (Bioorg Med Chem Lett, 2017)
Calls of active or inactive are those of the source. The calls are words filed in the database; no cut-off is given here.

Legend:
[1] = target: T1, Stearoyl-CoA desaturase (Homo sapiens) (UniProt O00767); experiment: Inhibition of SCD1 in human HepG2 cells assessed as decrease in 16:1/16:0 desaturase index after 72 hrs by gas chromatographic analysis; format: cell-based
T1 sequence (whole entry): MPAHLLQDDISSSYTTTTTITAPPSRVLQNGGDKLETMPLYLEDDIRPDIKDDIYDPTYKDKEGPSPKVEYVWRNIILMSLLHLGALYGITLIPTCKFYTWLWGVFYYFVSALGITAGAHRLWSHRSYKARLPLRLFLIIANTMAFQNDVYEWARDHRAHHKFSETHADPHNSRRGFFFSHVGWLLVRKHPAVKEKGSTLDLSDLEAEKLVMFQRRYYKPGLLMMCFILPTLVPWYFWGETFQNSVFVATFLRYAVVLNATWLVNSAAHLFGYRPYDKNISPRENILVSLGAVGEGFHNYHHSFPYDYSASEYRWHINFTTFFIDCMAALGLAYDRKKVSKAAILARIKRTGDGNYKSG

[2] = target: T1, Stearoyl-CoA desaturase (Homo sapiens); experiment: Inhibition of SCD1 in human HepG2 cells assessed as decrease in 18:1/18:0 desaturase index after 72 hrs by gas chromatographic analysis; format: cell-based
[3] = target: T1, Stearoyl-CoA desaturase (Homo sapiens); experiment: Inhibition of SCD1 in human HepG2 cells assessed as increase in cellular elongase index at 10 uM after 72 hrs by gas chromatographic analysis; format: cell-based
[4] = target: T1, Stearoyl-CoA desaturase (Homo sapiens); experiment: Inhibition of SCD1 in human HepG2 cells assessed as decrease in 16:1/16:0 desaturase index at 10 uM after 72 hrs by gas chromatographic analysis; format: cell-based
[5] = target: T1, Stearoyl-CoA desaturase (Homo sapiens); experiment: Inhibition of SCD1 in human HepG2 cells assessed as decrease in 18:1/18:0 desaturase index AT 10 uM after 72 hrs by gas chromatographic analysis; format: cell-based
[6] = target: T1, Stearoyl-CoA desaturase (Homo sapiens); experiment: Inhibition of SCD1 in human HepG2 cells assessed as decrease in cellular elongase index at 10 uM after 72 hrs by gas chromatographic analysis; format: cell-based
[7] = target: T1, Stearoyl-CoA desaturase (Homo sapiens); experiment: Inhibition of SCD1 in human HepG2 cells assessed as increase in cellular elongase index at 1 uM after 72 hrs by gas chromatographic analysis; format: cell-based
[8] = target: T1, Stearoyl-CoA desaturase (Homo sapiens); experiment: Inhibition of SCD1 in human HepG2 cells assessed as decrease in 16:1/16:0 desaturase index at 1 uM after 72 hrs by gas chromatographic analysis; format: cell-based
[9] = target: T1, Stearoyl-CoA desaturase (Homo sapiens); experiment: Inhibition of SCD1 in human HepG2 cells assessed as decrease in 18:1/18:0 desaturase index at 1 uM after 72 hrs by gas chromatographic analysis; format: cell-based
[10] = target: T1, Stearoyl-CoA desaturase (Homo sapiens); experiment: Inhibition of SCD1 in human HepG2 cells assessed as decrease in cellular lipid accumulation at 10 uM after 48 hrs by Oil Red O staining-based assay; format: cell-based
[11] = target: Tyrosine-protein kinase JAK2 (Homo sapiens) (UniProt O60674); experiment: Inhibition of recombinant human N-terminal His-tagged JAK2 catalytic domain (826 to 1132 residues) expressed in baculovirus expression system at 10 uM by TR-FRET assay relative to control
[12] = target: Receptor-type tyrosine-protein kinase FLT3 (Homo sapiens) (UniProt P36888); experiment: Inhibition of recombinant human N-terminal GST-tagged FLT3 cytoplasmic domain (564 to 993 residues) expressed in baculovirus expression system at 10 uM by TR-FRET assay relative to control
[13] = target: Macrophage colony-stimulating factor 1 receptor (Homo sapiens) (UniProt P07333); experiment: Inhibition of recombinant human N-terminal GST-tagged FMS cytoplasmic domain (538 to 972 residues) expressed in baculovirus expression system at 10 uM by TR-FRET assay relative to control
[14] = target: Tyrosine-protein kinase ABL1 (Homo sapiens) (UniProt P00519); experiment: Inhibition of full-length recombinant human N-terminal His-tagged ABL expressed in baculovirus expression system at 10 uM by TR-FRET assay relative to control
[15] = target: T1, Stearoyl-CoA desaturase (Homo sapiens); experiment: Inhibition of SCD1 in human HepG2 cells assessed as increase in cellular elongase index after 72 hrs by gas chromatographic analysis; format: cell-based
[16] = target: T1, Stearoyl-CoA desaturase (Homo sapiens); experiment: Inhibition of SCD1 in human HepG2 cells assessed as decrease in cellular lipid accumulation at 1 uM after 48 hrs by Oil Red O staining-based assay; format: cell-based

Sequence of Receptor-type tyrosine-protein kinase FLT3 (Homo sapiens) (P36888 whole entry, the tested form may be a part): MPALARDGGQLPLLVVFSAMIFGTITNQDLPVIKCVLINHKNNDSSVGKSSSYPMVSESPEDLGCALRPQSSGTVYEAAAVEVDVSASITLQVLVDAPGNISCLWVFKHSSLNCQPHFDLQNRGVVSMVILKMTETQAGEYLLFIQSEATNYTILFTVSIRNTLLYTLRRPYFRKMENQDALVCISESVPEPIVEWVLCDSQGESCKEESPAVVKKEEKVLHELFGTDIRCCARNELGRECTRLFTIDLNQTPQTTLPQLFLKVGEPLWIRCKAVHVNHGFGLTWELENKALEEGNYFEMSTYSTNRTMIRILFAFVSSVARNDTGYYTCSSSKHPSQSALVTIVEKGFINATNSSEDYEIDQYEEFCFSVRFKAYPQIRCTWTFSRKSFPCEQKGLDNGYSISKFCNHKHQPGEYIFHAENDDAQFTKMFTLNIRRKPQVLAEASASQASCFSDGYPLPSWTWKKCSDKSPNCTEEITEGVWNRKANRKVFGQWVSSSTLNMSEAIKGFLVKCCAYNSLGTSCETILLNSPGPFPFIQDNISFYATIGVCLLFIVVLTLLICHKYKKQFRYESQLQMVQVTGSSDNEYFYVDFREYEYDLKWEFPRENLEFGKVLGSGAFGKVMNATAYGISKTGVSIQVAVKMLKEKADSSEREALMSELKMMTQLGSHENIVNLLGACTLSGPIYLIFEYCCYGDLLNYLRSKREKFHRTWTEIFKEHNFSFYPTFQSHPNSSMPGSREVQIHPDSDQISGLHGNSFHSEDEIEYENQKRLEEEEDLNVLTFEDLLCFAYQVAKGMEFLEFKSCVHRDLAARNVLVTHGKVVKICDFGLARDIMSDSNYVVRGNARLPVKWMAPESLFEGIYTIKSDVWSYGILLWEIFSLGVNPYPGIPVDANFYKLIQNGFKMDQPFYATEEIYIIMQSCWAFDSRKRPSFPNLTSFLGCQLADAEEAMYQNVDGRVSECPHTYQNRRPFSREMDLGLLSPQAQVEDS
Sequence of Tyrosine-protein kinase ABL1 (Homo sapiens) (P00519 whole entry): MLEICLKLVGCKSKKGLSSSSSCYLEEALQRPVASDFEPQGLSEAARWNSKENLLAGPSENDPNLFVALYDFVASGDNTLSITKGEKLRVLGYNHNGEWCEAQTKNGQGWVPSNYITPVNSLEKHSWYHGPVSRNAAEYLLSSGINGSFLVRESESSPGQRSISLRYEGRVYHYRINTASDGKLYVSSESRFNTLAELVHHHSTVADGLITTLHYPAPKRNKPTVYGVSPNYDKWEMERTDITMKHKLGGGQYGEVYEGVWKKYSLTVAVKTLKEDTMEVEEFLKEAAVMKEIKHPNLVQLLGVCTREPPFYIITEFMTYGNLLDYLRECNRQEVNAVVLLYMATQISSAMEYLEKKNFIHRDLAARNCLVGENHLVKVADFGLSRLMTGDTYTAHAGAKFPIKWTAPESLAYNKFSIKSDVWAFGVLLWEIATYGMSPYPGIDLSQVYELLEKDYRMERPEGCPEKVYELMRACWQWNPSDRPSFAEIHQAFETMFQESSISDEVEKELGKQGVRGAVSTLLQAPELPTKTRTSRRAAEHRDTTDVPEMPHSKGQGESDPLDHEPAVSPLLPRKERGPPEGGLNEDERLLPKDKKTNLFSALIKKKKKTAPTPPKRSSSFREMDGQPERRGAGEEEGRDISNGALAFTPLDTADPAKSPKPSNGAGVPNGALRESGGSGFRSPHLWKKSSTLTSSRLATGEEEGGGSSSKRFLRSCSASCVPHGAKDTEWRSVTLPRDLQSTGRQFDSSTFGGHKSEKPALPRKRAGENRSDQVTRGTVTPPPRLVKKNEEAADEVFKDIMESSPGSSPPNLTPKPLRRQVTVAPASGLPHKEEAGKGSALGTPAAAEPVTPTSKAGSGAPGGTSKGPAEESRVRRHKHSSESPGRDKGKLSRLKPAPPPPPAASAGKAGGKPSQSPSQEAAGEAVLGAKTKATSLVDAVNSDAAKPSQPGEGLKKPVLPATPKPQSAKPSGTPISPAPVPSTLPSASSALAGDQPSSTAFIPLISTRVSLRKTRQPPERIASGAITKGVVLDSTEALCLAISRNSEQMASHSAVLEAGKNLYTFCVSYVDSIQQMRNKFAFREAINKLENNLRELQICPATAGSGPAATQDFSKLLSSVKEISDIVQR
Sequence of Tyrosine-protein kinase JAK2 (Homo sapiens) (O60674 whole entry, the tested form may be a part): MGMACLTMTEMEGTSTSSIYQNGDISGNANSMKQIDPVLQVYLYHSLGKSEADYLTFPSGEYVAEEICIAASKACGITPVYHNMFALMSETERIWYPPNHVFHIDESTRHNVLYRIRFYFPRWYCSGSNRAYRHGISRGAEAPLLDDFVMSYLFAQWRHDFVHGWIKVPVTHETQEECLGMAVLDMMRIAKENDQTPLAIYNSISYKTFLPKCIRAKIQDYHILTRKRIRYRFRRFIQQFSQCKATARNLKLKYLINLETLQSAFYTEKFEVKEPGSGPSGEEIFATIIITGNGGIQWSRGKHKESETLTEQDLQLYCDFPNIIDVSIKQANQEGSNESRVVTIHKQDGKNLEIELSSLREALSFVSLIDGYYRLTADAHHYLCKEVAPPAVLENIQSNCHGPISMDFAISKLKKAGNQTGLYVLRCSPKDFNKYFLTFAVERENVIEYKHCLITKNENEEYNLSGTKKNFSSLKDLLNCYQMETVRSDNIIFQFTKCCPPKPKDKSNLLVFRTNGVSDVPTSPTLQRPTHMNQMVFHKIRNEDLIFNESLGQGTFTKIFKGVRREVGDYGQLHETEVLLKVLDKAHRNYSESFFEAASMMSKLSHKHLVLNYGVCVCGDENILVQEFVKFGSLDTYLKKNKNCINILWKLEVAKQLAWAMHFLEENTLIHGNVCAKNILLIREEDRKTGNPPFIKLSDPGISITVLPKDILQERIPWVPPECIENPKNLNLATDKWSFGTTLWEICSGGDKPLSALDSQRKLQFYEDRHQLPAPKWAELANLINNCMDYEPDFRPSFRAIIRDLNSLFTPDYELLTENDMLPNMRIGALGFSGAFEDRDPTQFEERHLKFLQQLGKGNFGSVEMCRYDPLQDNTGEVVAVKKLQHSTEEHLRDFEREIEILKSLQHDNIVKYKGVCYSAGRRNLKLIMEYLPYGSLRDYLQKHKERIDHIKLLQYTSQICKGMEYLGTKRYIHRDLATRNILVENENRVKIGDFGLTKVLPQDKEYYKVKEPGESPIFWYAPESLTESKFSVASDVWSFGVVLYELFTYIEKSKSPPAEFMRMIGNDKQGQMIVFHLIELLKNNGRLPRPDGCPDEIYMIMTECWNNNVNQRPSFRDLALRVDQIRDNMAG
Sequence of Macrophage colony-stimulating factor 1 receptor (Homo sapiens) (P07333 whole entry, the tested form may be a part): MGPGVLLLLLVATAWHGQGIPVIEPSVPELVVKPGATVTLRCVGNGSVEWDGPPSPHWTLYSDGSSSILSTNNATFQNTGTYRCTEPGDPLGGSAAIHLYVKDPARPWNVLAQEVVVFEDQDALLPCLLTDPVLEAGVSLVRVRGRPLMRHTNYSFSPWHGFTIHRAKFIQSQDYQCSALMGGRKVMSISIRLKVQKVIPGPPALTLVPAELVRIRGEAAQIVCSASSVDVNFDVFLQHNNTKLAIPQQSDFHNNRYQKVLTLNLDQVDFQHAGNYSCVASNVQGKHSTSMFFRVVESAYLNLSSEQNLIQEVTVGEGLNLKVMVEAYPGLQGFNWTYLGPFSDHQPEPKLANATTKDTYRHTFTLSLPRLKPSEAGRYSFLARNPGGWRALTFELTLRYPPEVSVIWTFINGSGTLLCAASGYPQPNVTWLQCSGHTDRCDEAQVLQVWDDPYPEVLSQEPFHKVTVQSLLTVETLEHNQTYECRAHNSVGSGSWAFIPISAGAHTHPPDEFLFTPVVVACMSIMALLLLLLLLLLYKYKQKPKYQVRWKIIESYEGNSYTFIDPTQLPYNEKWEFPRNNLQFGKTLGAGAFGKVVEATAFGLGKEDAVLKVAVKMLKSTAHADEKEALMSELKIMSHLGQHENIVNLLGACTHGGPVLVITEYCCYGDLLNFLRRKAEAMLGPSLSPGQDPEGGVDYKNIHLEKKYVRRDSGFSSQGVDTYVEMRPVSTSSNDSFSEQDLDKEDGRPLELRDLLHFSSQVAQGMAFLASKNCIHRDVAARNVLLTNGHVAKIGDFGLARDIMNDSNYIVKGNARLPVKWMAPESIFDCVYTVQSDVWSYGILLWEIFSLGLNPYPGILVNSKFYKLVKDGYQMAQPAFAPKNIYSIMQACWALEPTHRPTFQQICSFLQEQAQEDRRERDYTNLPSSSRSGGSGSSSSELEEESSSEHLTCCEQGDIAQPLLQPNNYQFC

SMILES | inhibition [1] | inhibition [2] | inhibition [3] | inhibition [4] | inhibition [5] | inhibition [6] | further results
O=c1[nH]c(-c2ccc(CN3CCOCC3)cc2)nc2sc3c(c12)CCC(CO)C3 (stereo not given) | Dose-dependent effect | Dose-dependent effect | Active | Active | Active | – | –
NC(=O)c1c(NC(=O)c2ccc(CN3CCOCC3)cc2)sc2c1CCCC2 | – | – | – | – | – | Active | –
NC(=O)c1c(NC(=O)c2ccc(CN3CCOCC3)cc2)sc2c1CCC(CO)C2 (stereo not given) | Dose-dependent effect | Dose-dependent effect | Active | Active | Active | – | inhibition [7]: Active; inhibition [8]: Active; inhibition [9]: Active; inhibition [10]: Active; inhibition [11]: 45%; inhibition [12]: > 80%; inhibition [13]: > 80%; inhibition [14]: > 80%
CCOC(=O)C1CCc2c(sc(NC(=O)c3ccc(CN4CCOCC4)cc3)c2C(N)=O)C1 (stereo not given) | – | – | – | – | – | Active | –
NC(=O)c1c(NC(=O)c2ccc(CN3CCOCC3)cc2)sc2c1CCC(c1ccc(O)cc1)C2 (stereo not given) | – | – | inactive | – | – | – | –
NC(=O)c1c(NC(=O)c2ccc(CN3CCS(=O)(=O)CC3)cc2)sc2c1CCC(CO)C2 (stereo not given) | Dose-dependent effect | Dose-dependent effect | Active | Active | Active | – | –
O=c1[nH]c(-c2ccc(CN3CCS(=O)(=O)CC3)cc2)nc2sc3c(c12)CCC(CO)C3 (stereo not given) | – | – | – | – | – | Active | –
CN(C)Cc1ccc(C(=O)Nc2sc3c(c2C(N)=O)CCC(CO)C3)cc1 (stereo not given) | Dose-dependent effect | Dose-dependent effect | Active | Active | Active | – | –
NC(=O)c1c(N)sc2c1CCC(CO)C2 (stereo not given) | – | – | – | – | – | Active | –
NC(=O)c1c(NC(=O)c2ccc(CN3CCCCC3)cc2)sc2c1CCC(CO)C2 (stereo not given) | Dose-dependent effect | Dose-dependent effect | Active | Active | Active | – | –
O=c1[nH]c(-c2ccc(CN3CCCCC3)cc2)nc2sc3c(c12)CCC(CO)C3 (stereo not given) | – | – | – | – | – | Active | –
NC(=O)c1c(NC(=O)c2ccc(CN3CCOCC3)cc2)sc2c1CCCC2CCO (stereo not given) | – | – | – | – | – | Active | –
CN(C)Cc1ccc(-c2nc3sc4c(c3c(=O)[nH]2)CCC(CO)C4)cc1 (stereo not given) | – | – | – | – | – | Active | inhibition [10]: inactive
Cc1nnc(-c2ccc(N3CCC(Oc4cc(F)ccc4Cl)CC3)nn2)o1 | Dose-dependent effect | Dose-dependent effect | Active | Active | Active | – | inhibition [15]: Dose-dependent effect; inhibition [16]: Active
NC(=O)c1c(NC(=O)c2ccc(CN3CCOCC3)cc2)sc2c1CCC(C(=O)O)C2 (stereo not given) | – | – | inactive | – | – | – | –
